IC50 data for 14 compounds are collected here from ChEMBL document CHEMBL1128946, “Novel inhibitors of influenza sialidases related to GG167 structure-activity, crystallographic and Molecular dynamics studies with 4H-pyran-2-carboxylic acid 6-carboxamides” (Bioorg Med Chem Lett, 1996).

SMILES strings stand for the structures.

The target of the experiment is Neuraminidase (Influenza A virus (A/Puerto Rico/8/1934(H1N1)), UniProt P03468). Kind of experiment: Inhibition of influenza A sialidase (neuraminidase). Also noted: species or system Influenza A virus (strain: A/PR/8/34).

As to `CNC(=O)[C@@H]1OC(C(=O)O)=C[C@H](N)[C@H]1NC(C)=O`, the IC50 stood at 190000 nM.
Regarding `CC(=O)N[C@@H]1[C@@H](N=C(N)N)C=C(C(=O)O)O[C@H]1C(=O)N(C)C`, the IC50 came to 25 nM.
Next, `CCCN(CCC)C(=O)[C@@H]1OC(C(=O)O)=C[C@H](N)[C@H]1NC(C)=O`: 3 nM; `CCN(CCc1ccccc1)C(=O)[C@@H]1OC(C(=O)O)=C[C@H](N)[C@H]1NC(C)=O`: 5 nM; `CCN(CC)C(=O)[C@@H]1OC(C(=O)O)=C[C@H](N)[C@H]1NC(C)=O`: 3 nM.
Under `CCCN(CCc1ccccc1)C(=O)[C@@H]1OC(C(=O)O)=C[C@H](N=C(N)N)[C@H]1NC(C)=O` stands 5 nM; under `CCNC(=O)[C@@H]1OC(C(=O)O)=C[C@H](N)[C@H]1NC(C)=O`, 13000 nM.
Next, `CNC(=O)[C@@H]1OC(C(=O)O)=C[C@H](N=C(N)N)[C@H]1NC(C)=O`: 7000 nM.
`CCCCN(CCCC)C(=O)[C@@H]1OC(C(=O)O)=C[C@H](N=C(N)N)[C@H]1NC(C)=O` yielded an IC50 of 16 nM.
In turn, `CC(=O)N[C@H]1[C@H]([C@H](O)[C@H](O)CO)OC(C(=O)O)=C[C@@H]1N` displayed a concentration for half-maximal inhibition (IC50) of 300 nM.
Under `CC(=O)N[C@@H]1[C@@H](N)C=C(C(=O)O)O[C@H]1C(=O)NCCc1ccccc1` stands 12000 nM.
Under `CCN(CC)C(=O)[C@@H]1OC(C(=O)O)=C[C@H](NC(=N)N)[C@H]1NC(C)=O` stands 1 nM; under `CC(=O)N[C@@H]1[C@@H](N)C=C(C(=O)O)O[C@H]1C(=O)N(C)CCc1ccccc1`, 320 nM; under `CCCN(CCc1ccc(-c2ccccc2)cc1)C(=O)[C@@H]1OC(C(=O)O)=C[C@H](N)[C@H]1NC(C)=O`, 3 nM.
